One data set is described as follows: Pharmacokinetics in rats. The settings on record: rat; for half-life: plasma, read-out: plasma elimination t1/2 (converted). Type of data set: in vivo. As for the experimental part:
UTAinh-E02 or UTAinh-F11 was administered at 20 mg/kg intravenously by tail vein to rats. UTAinh-E02 was formulated as a 5 mg/mL saline solution containing 20% dimethylacetamide and 40% 2-hydroxypropyl γ-cyclodextrin; UTAinh-F11 was formulated as a 5 mg/mL saline solution containing 20% dimethylacetamide and 0.6 mg/mL NaOH. Blood samples were collected from the tail vein into K3EDTA mini collecting tubes (Greiner, Kremsmunster, Austria) at specified time points. Plasma samples were separated by centrifugation and kept frozen at −20 OC until analysis. Urine samples were also collected. Calibration standards were prepared in urine and plasma from control (non-treated) rats to which known amounts of UTAinh-E02 or UTAinh-F11 were added. The mixture was centrifuged for 20 min at 13,200 rpm and 90 μL of supernatant was taken for LC/MS. The solvent system consisted of a linear gradient from 5% to 95% acetonitrile containing 0.1% formic acid over 16 min (0.2 mL/min flow). Mass spectra was acquired on a mass spectrometer (Waters 2695+micromass ZQ; Waters) using electrospray (+) ionization, mass ranging from 100 to 1500 Da, 40-V cone voltage.
Several vehicles and administration routes were tested in order to give predicted therapeutic inhibitor concentrations in blood and urine. […] Because of the alkaline pH of the administered compounds the vehicle control for UTAinh-F11 was 20% dimethylacetamide and 1.2 mg/mL NaHCO3 in saline to give identical pH. […] Urine levels of UTAinh-F11 were >3 μM over 6 h.

In data set [1] the test system is multiple anion (CFTR, calcium-activated chloride channels) and cation (K+, Na+) channels. Description: Short-circuit current in MDCK cells (ion channel off-target effects). Format: cell-based, canine. Conditions: 20 μM inhibitor, forskolin and ATP. Here is the method:
MDCK cells on black 96-well Costar microplates with clear plastic bottoms were cultured for 24 h at 37° C. and incubated with test compounds (0 to 25 μM) for 24 h. Cell viability was assayed using AlamarBlue (Pierce, Rockford, Ill.) in which the reagent was added to each well, incubated for 30 min, and absorbance measured at 590 nm. For short-circuit current measurement, snapwell inserts containing MDCK cells were mounted on Ussing chambers. Test compounds (20 μM) were incubated with MDCK cells at both apical and basolateral sides for 10 min at 37° C. prior to addition of 20 μM forskolin and then 100 μM ATP. The apical and basolateral chambers contained identical solutions: 120 mM NaCl, 5 mM KCl, 1 mM MgCl2, 1 mM CaCl2, 5 mM HEPES, 25 mM NaHCO3 and 10 mM glucose. Solutions were bubbled with 5% CO2/95% O2 and maintained at 37° C. […]
Compound toxicity was evaluated by compound incubation for 24 h with MDCK cell cultures followed by Alamar blue assay. […] To assess potential ion channel off-target effects, short-circuit current was measured in MDCK cells in response to cAMP (forskolin) and calcium (ATP) agonists (FIG. 5C, right), which depends on the actions of multiple anion (CFTR, calcium-activated chloride channels) and cation (K^+, Na^+) channels.

In a further data set the target is T1, UT-A1 (Rattus norvegicus, UniProt Q62668).
T1 construct: expressed in transfected cells; host or cells: MDCK cells
T1 sequence (Q62668 1-929): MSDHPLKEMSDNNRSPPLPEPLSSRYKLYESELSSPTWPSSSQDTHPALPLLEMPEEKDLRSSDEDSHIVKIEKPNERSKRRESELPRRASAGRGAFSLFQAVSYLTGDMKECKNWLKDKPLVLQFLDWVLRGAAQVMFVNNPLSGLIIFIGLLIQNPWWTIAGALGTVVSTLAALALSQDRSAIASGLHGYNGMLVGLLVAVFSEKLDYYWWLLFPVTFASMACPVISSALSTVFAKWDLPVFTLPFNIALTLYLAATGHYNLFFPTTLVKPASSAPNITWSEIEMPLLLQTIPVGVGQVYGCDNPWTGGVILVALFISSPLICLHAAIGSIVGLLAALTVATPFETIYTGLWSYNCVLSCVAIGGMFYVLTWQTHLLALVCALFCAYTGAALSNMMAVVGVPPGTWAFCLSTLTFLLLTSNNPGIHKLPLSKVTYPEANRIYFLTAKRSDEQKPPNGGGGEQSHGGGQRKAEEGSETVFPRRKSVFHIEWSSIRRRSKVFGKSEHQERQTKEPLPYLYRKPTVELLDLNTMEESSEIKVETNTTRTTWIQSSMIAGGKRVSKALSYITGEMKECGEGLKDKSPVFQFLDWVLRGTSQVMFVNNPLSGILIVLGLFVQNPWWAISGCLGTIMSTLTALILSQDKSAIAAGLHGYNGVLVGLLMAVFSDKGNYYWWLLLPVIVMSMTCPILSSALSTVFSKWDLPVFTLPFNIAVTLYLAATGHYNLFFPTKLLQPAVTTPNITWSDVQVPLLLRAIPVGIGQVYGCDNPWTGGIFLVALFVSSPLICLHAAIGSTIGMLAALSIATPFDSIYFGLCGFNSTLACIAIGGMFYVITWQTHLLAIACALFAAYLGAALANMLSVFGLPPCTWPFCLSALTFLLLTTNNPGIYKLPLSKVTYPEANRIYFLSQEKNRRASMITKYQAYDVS
In words: Transepithelial urea transport in UT-A1-expressing MDCK cells on porous filters. Type of data set: cell-based. Conditions: 3 μM inhibitor, forskolin 10 μM. As for the experimental part:
UT-A1 expressing MDCK cells were grown on 12-mm diameter collagen-coated Transwell inserts (0.4 μm pore size; Costar, Costar, N.Y.) to form tight monolayers (resistance>500 Ωcm^2), as described (see, e.g., Levin et al. (2007) FASEB J. 21, 551-563). Urea flux in the basolateral-to-apical direction was measured in response to a 15 mM urea gradient in which PBS containing forskolin (10 μM), with or without UT-A1 inhibitor and 0.7 mM phloretin, was added to both the apical-facing (0.2 mL) and basal-facing (2 mL) surfaces. After 30 min the basal-facing solution was replaced by PBS containing test compound+15 mM urea. Apical fluid samples (5 μL) were collected at specified times for enzymatic assay of urea (QUANTICHROME Urea Assay Kit; BioAssay Systems, Hayward, Calif.). To measure inhibitor permeability across MDCK cell layers, compounds (20 μM) were added on the basal-facing surface and fluid samples (20 μL) from the apical-facing surface were collected at different time points and analyzed by LC/MS.
Transepithelial urea transport from the basolateral to the apical solution was measured by enzymatic assay of urea in the apical solution following urea addition to the basal-facing solution.

[2] abbreviates: intraperitoneal, subcutaneous or oral, up to 100 mg/kg.

SMILES strings stand for the structures. Where only a bound is given, the exact number is not on record here.

For `CC(=O)Nc1ccc(-c2csc(-c3c[nH]c4ccccc34)n2)cc1` [UTA1inh-E02, N-(4-(2-(1H-indol-3-yl)thiazol-4-yl)phenyl)acetamide], in the data set “Pharmacokinetics in rats” (intravenous 20 mg/kg), the half-life was approximately 4.5 h, the plasma level initially was approximately 6 µM and the urine level initially is approximately 3 µM. In the data set “Pharmacokinetics in rats” (setting [2]), the plasma concentration was less than 1 µM and the urine concentration is less than 1 µM. Besides, in data set [1], the short-circuit current entry was “Neither inhibitor at 20 μM altered short-circuit current”. Further, at UT-A1, the “inhibition of transepithelial urea transport” value is on record as approximately 50%.

As for `COc1ccc(C)cc1S(=O)(=O)Nc1ccc(Cl)c(N2CCCS2(=O)=O)c1` [UTA1inh-F11, N-[4-Chloro-3-(1,1-dioxido-1,2-thiazolidin-2-yl)phenyl]-2-methoxy-5-methylbenzene-sulfonamide], in the data set “Pharmacokinetics in rats” (intravenous 20 mg/kg), the half-life is approximately 1 h, the plasma level initially entry is reported as “higher initial plasma levels than UTAinh-E02” and the “urine levels over 6 h” value is more than 3 µM. The short-circuit current entry in data set [1] is “Neither inhibitor at 20 μM altered short-circuit current”. For the same molecule, the “inhibition of transepithelial urea transport” value at UT-A1 is listed as approximately 50%.
